Reference: patent US8420696B2, “Use of low-dose ladostigil for neuroprotection” (priority 2005, dated 2013)

Tests used:
Assay type in all cases: in vivo, Sprague-Dawley rats
[1] = test system: NT immunoreactivity in astrocytes; test: Example 2: astrocyte activation and NT immunoreactivity in hippocampus and regions bordering lateral ventricles after icv STZ; details: 1 mg/kg/day orally, one week after icv STZ
Method: (§1) Male Sprague-Dawley rats (63) weighing 320-340 g, aged 4 months, were anesthetized by an intraperitoneal injection of Equithesin 0.3 ml/kg. STZ (0.5 mg) dissolved in 2 μl artificial cerebrospinal fluid (CSF) was injected into each lateral ventricle of 45 rats. The stereotaxic co-ordinates for icv injection were: 0.9 mm posterior, 1.8 mm lateral and 3.8 mm ventral from the bregma level. Control rats (18) received a bilateral injection of 2 μl artificial CSF. STZ-injected rats (25) were given ladostigil (1 mg/kg of the hemitartrate salt/day) orally in a volume of (1 ml/kg) from one week before, until 1 or 8 weeks after icv STZ. The remaining 20 rats received 1 ml/kg water. The rats were housed two per cage with free access to food and water until the behavioral, enzymatic and cytochemical measurements were completed. […]
(§2) Nitrotyrosine, (NT) a marker of nitrative/oxidative stress, was stained with rabbit anti-nitrotyrosine from Upstate (Lake Placid, N.Y., USA), diluted 1:100 followed by the secondary donkey anti-rabbit conjugated with horseradish peroxidase from Chemicon (Temecula, Calif., USA), was diluted 1:200. […] Images were obtained by bright field microscopy and quantitative assessments of appropriate markers were made using AnalySIS software. […]
For each quantitative analysis of NT-immunoreactive astrocytes, 3 sections were sampled from each rat. […]

[2] = test system: rats injected icv with STZ (spatial memory); test: Morris water maze spatial memory after icv STZ; details: icv STZ + chronic ladostigil 1 mg/kg vs icv STZ only
Method: as §1
Group means of 3 measures in the object and place recognition tests, duration of exploration in first and second phases and discrimination index were submitted to one way ANOVA. Mean daily escape latencies for trial 1 and trial 2 in the MWM in each group were analyzed by repeated measures ANOVA for DAY and GROUP followed by Duncan's post hoc test where appropriate. Histological data were analyzed by univariate ANOVA followed by Duncan's post hoc test. […]

microglia and astrocytes = test: Example 2: microglia and astrocyte activation at cannula penetration site after icv STZ
Method: Male Sprague-Dawley rats (63) weighing 320-340 g, aged 4 months, were anesthetized by an intraperitoneal injection of Equithesin 0.3 ml/kg. STZ (0.5 mg) dissolved in 2 μl artificial cerebrospinal fluid (CSF) was injected into each lateral ventricle of 45 rats. The stereotaxic co-ordinates for icv injection were: 0.9 mm posterior, 1.8 mm lateral and 3.8 mm ventral from the bregma level. Control rats (18) received a bilateral injection of 2 μl artificial CSF. STZ-injected rats (25) were given ladostigil (1 mg/kg of the hemitartrate salt/day) orally in a volume of (1 ml/kg) from one week before, until 1 or 8 weeks after icv STZ. The remaining 20 rats received 1 ml/kg water. The rats were housed two per cage with free access to food and water until the behavioral, enzymatic and cytochemical measurements were completed.
One week after icv injection, 8 rats injected with icv CSF, 7 rats given STZ alone, and 7 treated with ladostigil were anesthetized with sodium pentobarbitone, perfused transcardially and the brains processed for immunocytochemistry. […]
as §2
Three distinct zones were distinguished in the vicinity of the cortical injection site after icv STZ injection containing astrocytes and microglia with differing morphology. Quantification of microglia and astrocytes in the three zones was made in sections sampled in a range of P0.2-0.8 mm from the bregma. The area of each zone containing the different types of astrocytes was measured and the percentage that each zone occupied in the wound area was calculated (Statistica software, StatSoft, USA). The classes of microglia were counted separately in each zone. […]

C#CCN[C@@H]1CCc2ccc(OC(=O)N(C)CC)cc21 [ladostigil, R(+)-6-(N-methyl,N-ethyl-carbamoyloxy)-N′-propargyl-1-aminoindan]
Astrocyte activation and NT immunoreactivity in CA1, corpus callosum, medial and lateral septum [1]: reduced both astrocyte activation and NT immunoreactivity in these brain regions to the level of that seen in CSF-injected controls | Escape latency in Morris water maze, trial 1, means over 5 days [2]: rats given icv STZ only had significantly higher latencies than those injected with CSF or STZ and treated with ladostigil | Changes in microglia and astrocytes in zones i) and iii) resulting from icv STZ (microglia and astrocytes; 1 mg/kg/day hemitartrate orally, seven days after icv STZ): prevented the changes | Density of fibrous microglia in zone ii) (microglia and astrocytes; 1 mg/kg/day orally, seven days after icv STZ): no effect | Scar morphology at cannula penetration site (microglia and astrocytes; eight weeks after icv STZ, with or without ladostigil): No differences
